Data taken from ChEMBL document CHEMBL1201862, “PubChem BioAssay data set” (2004).
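Results reflect a 48-hour exposure of cells in 96-well plates to compound at five concentrations. GI50 marks 50% less growth.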 Activity calls are given as the source filed them. Cut-off read from the data, not from the text of the source: active = GI50 up to about 1.1 µM and inactive = higher.

How the values were obtained:
Test in all cases: NCI tumour cell line growth inhibition, 48 h
[1] = tested on: RPMI-8226
[2] = tested on: ACHN
[3] = tested on: HT-29
[4] = tested on: UO-31
[5] = tested on: A549
[6] = tested on: SNB-19
[7] = tested on: CCRF-CEM
[8] = tested on: OVCAR-8
[9] = tested on: SK-MEL-28
[10] = tested on: HOP-92
[11] = tested on: U-251
[12] = tested on: SN12C
[13] = tested on: UACC-257
[14] = tested on: CAKI-1
[15] = tested on: SF-295
[16] = tested on: SK-MEL-5
[17] = tested on: SK-OV-3
[18] = tested on: SF-268
[19] = tested on: RXF 631
[20] = tested on: UACC-62
[21] = tested on: IGROV-1
[22] = tested on: Malme-3M
[23] = tested on: SW-620
[24] = tested on: NCI-H522
[25] = tested on: COLO 205
[26] = tested on: LOX IMVI
[27] = tested on: M19-MEL
[28] = tested on: TK-10
[29] = tested on: HOP-18
[30] = tested on: RXF 393
[31] = tested on: OVCAR-5
[32] = tested on: MOLT-4
[33] = tested on: HCC 2998
[34] = tested on: DMS-273
[35] = tested on: DMS-114
[36] = tested on: SNB-75
[37] = tested on: EKVX
[38] = tested on: HCT-15
[39] = tested on: A498
[40] = tested on: DLD-1
[41] = tested on: HOP-62
[42] = tested on: OVCAR-3
[43] = tested on: NCI-H23
[44] = tested on: SK-MEL-2
[45] = tested on: KM-20L2
[46] = tested on: 786-0
[47] = tested on: HL-60
[48] = tested on: SF-539
[49] = tested on: KM12
[50] = tested on: K562
[51] = tested on: NCI-H460
[52] = tested on: LXFL 529
[53] = tested on: NCI-H226
[54] = tested on: OVCAR-4
[55] = tested on: M14
[56] = tested on: HCT-116
[57] = tested on: SR
[58] = tested on: SNB-78

Measured: GI50

Cc1nc(Nc2ccc([N+](=O)[O-])cc2)sc1C(=O)/C=C/c1ccc(N(C)C)cc1
44.6 µM: [38]
inactive: [1] 54.1 µM | [2] 48.3 µM | [3] > 100 µM | [4] 36.8 µM | [5] 40.7 µM | [6] > 100 µM | [7] 60.1 µM | [8] 73.3 µM | [9] > 100 µM | [10] > 100 µM | [11] > 100 µM | [12] > 100 µM | [13] 81.3 µM | [14] > 100 µM | [15] 40.1 µM | [16] 50.5 µM | [17] > 100 µM | [18] > 100 µM | [19] > 100 µM | [20] > 100 µM | [21] > 100 µM | [22] > 100 µM | [23] > 100 µM | [24] 19.4 µM | [25] > 100 µM | [26] 64.7 µM | [27] > 100 µM | [28] 77.4 µM | [29] > 100 µM | [30] 30.4 µM | [31] > 100 µM | [32] 35.9 µM | [33] 78.3 µM | [34] 77.3 µM | [35] 59.4 µM | [36] > 100 µM | [37] 52.5 µM | [39] 49.2 µM | [40] 60.5 µM | [41] > 100 µM | [42] > 100 µM | [43] > 100 µM | [44] 64.3 µM | [45] 73.1 µM | [46] > 100 µM | [47] 76.7 µM | [48] 88.9 µM | [49] 57.8 µM | [50] 37.8 µM | [51] 65.2 µM

BrC12c3ccccc3Sc3ccccc3C1(Br)c1ccccc12 (configuration not stated)
inactive: [1] 13.5 µM | [2] 24.2 µM | [3] 34.8 µM | [52] 20.9 µM | [4] 33 µM | [5] 27.7 µM | [6] 32.7 µM | [7] 4.93 µM | [8] 32.1 µM | [10] 19.8 µM | [11] 17.7 µM | [12] 25.8 µM | [13] 22.3 µM | [14] 26.1 µM | [15] 23.7 µM | [16] 16.2 µM | [17] 42.1 µM | [18] 32.4 µM | [19] 25.9 µM | [20] 16.7 µM | [21] 27 µM | [22] 30.7 µM | [23] 36.2 µM | [24] 17.5 µM | [25] 28.8 µM | [53] 16.7 µM | [26] 15.8 µM | [54] 33.1 µM | [27] 35.2 µM | [55] 15.2 µM | [28] 35.6 µM | [29] 51.5 µM | [56] 22 µM | [30] 34.2 µM | [31] 25.5 µM | [32] 10.7 µM | [33] 28.8 µM | [34] 36 µM | [35] 19.5 µM | [36] 27.3 µM | [39] 22.9 µM | [57] 11.1 µM | [40] 33 µM | [41] 19.5 µM | [44] 15.8 µM | [45] 20.6 µM | [46] 34.5 µM | [47] 5.21 µM | [48] 18.3 µM | [49] 19.9 µM | [50] 22.2 µM | [51] 40.2 µM
17.8 µM: [38]

CC1=C(C(=O)NCc2ccccc2)C(c2ccccc2C)C(C(=O)NCc2ccccc2)=C(C)N1
inactive: [1] 29.9 µM | [2] 20 µM | [3] 27.2 µM | [52] 29.5 µM | [4] 42.8 µM | [5] 49.8 µM | [6] 35.6 µM | [7] 29.6 µM | [8] 17.9 µM | [58] 33.6 µM | [9] 27.6 µM | [10] 39 µM | [11] 24.5 µM | [12] 25.5 µM | [13] 10.7 µM | [14] 50.8 µM | [15] 29.7 µM | [16] 35.5 µM | [17] 91.2 µM | [18] 22.8 µM | [19] 42.1 µM | [20] 17.2 µM | [21] 31.7 µM | [22] 72.6 µM | [23] 38.8 µM | [24] 28.4 µM | [25] 38.8 µM | [53] 30.7 µM | [26] 17.7 µM | [54] 27.2 µM | [27] 33 µM | [55] 20.4 µM | [28] 41.7 µM | [29] > 53 µM | [56] 19 µM | [30] 23.7 µM | [31] 35.9 µM | [32] 27.1 µM | [33] 28.6 µM | [34] 27.5 µM | [35] 29.6 µM | [36] > 43.8 µM | [37] 58.7 µM | [39] 44.3 µM | [57] 24.5 µM | [40] 20.9 µM | [41] 29.9 µM | [42] 23.5 µM | [43] 33.1 µM | [44] 18.5 µM | [45] 28.4 µM | [46] 25.1 µM | [47] 21 µM | [48] 24.6 µM | [49] 24.8 µM | [50] 38.5 µM | [51] 19.5 µM
17.7 µM: [38]
